Measurements taken from patent US12077503B2, “Substituted cyclic amides and their use as herbicides” (FMC CORPORATION, priority 2015, dated 2024).

Tests used:
Assay in all cases: Test C preemergence
Format in all cases: in vivo
[1] = test system: Galium (catchweed bedstraw, Galium aparine); conditions: for Plant response rating, Galium: scale 0 to 100, 0 no effect, 100 complete control
Procedure, shortened: (§1)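 After treatment with surfactant-containing formulations, either preemergence to seeds in loam-sand soil or postemergence to potted seedlings at 2–18 cm, plants were kept 13–15 d in a greenhouse. Observers then compared them with controls and assigned ratings, 0 signifying no effect and 100 complete control.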

[2] = test system: barnyardgrass (Echinochloa crus-galli); conditions: for Plant response rating, Barnyardgrass: scale 0 to 100, 0 no effect, 100 complete control
Procedure, shortened: as §1

[3] = test system: blackgrass (Alopecurus myosuroides); conditions: for Plant response rating, Blackgrass: scale 0 to 100, 0 no effect, 100 complete control
Procedure, shortened: as §1

[4] = test system: corn (Zea mays); conditions: for Plant response rating, Corn: scale 0 to 100, 0 no effect, 100 complete control
Procedure, shortened: as §1

[5] = test system: crabgrass, large (large crabgrass, Digitaria sanguinalis); conditions: for Plant response rating, Crabgrass, Large: scale 0 to 100, 0 no effect, 100 complete control
Procedure, shortened: as §1

[6] = test system: foxtail, giant (giant foxtail, Setaria faberii); conditions: for Plant response rating, Foxtail, Giant: scale 0 to 100, 0 no effect, 100 complete control
Procedure, shortened: as §1

[7] = test system: johnsongrass (Sorghum halepense); conditions: for Plant response rating, Johnsongrass: scale 0 to 100, 0 no effect, 100 complete control
Procedure, shortened: as §1

[8] = test system: lambsquarters (Chenopodium album); conditions: for Plant response rating, Lambsquarters: scale 0 to 100, 0 no effect, 100 complete control
Procedure, shortened: as §1

[9] = test system: morningglory (Ipomoea coccinea); conditions: for Plant response rating, Morningglory: scale 0 to 100, 0 no effect, 100 complete control
Procedure, shortened: as §1

[10] = test system: oilseed rape (Brassica napus); conditions: for Plant response rating, Oilseed Rape: scale 0 to 100, 0 no effect, 100 complete control
Procedure, shortened: as §1

[11] = test system: pigweed (Amaranthus retroflexus); conditions: for Plant response rating, Pigweed: scale 0 to 100, 0 no effect, 100 complete control
Procedure, shortened: as §1

[12] = test system: ragweed (common ragweed, Ambrosia elatior); conditions: for Plant response rating, Ragweed: scale 0 to 100, 0 no effect, 100 complete control
Procedure, shortened: as §1

[13] = test system: ryegrass, Italian (Italian ryegrass, Lolium multiflorum); conditions: for Plant response rating, Ryegrass, Italian: scale 0 to 100, 0 no effect, 100 complete control
Procedure, shortened: as §1

[14] = test system: soybean (Glycine max); conditions: for Plant response rating, Soybean: scale 0 to 100, 0 no effect, 100 complete control
Procedure, shortened: as §1

[15] = test system: velvetleaf (Abutilon theophrasti); conditions: for Plant response rating, Velvetleaf: scale 0 to 100, 0 no effect, 100 complete control
Procedure, shortened: as §1

[16] = test system: waterhemp (common waterhemp, Amaranthus rudis); conditions: for Plant response rating, Waterhemp: scale 0 to 100, 0 no effect, 100 complete control
Procedure, shortened: as §1

[17] = test system: wheat (winter wheat, Triticum aestivum); conditions: for Plant response rating, Wheat: scale 0 to 100, 0 no effect, 100 complete control
Procedure, shortened: as §1

[18] = 31 g ai/ha, 0 is no effect, 100 is complete control

## CN1CC(c2cccc(OC(F)F)c2)C(C(=O)Nc2cccc(F)c2F)C1=O (centres unmarked) [Compound 616]
[1]; [18]
  Plant response rating (scale of 0 to 100), Galium: 90
[1]; 62 g ai/ha
  Plant response rating, Galium: 85
[1]; 125 g ai/ha
  Plant response rating, Galium: 85
[1]; 250 g ai/ha
  Plant response rating, Galium: 90
[2]; [18]
  Plant response rating (scale of 0 to 100), Barnyardgrass: 90
[2]; 62 g ai/ha
  Plant response rating, Barnyardgrass: 90
[2]; 125 g ai/ha
  Plant response rating, Barnyardgrass: 95
[2]; 250 g ai/ha
  Plant response rating, Barnyardgrass: 95
[3]; [18]
  Plant response rating (scale of 0 to 100), Blackgrass: 30
[3]; 62 g ai/ha
  Plant response rating, Blackgrass: 45
[3]; 125 g ai/ha
  Plant response rating, Blackgrass: 80
[3]; 250 g ai/ha
  Plant response rating, Blackgrass: 80
[4]; [18]
  Plant response rating (scale of 0 to 100), Corn: 55
[4]; 62 g ai/ha
  Plant response rating, Corn: 65
[4]; 125 g ai/ha
  Plant response rating, Corn: 80
[4]; 250 g ai/ha
  Plant response rating, Corn: 85
[5]; [18]
  Plant response rating (scale of 0 to 100), Crabgrass, Large: 90
[5]; 62 g ai/ha
  Plant response rating, Crabgrass, Large: 90
[5]; 125 g ai/ha
  Plant response rating, Crabgrass, Large: 95
[5]; 250 g ai/ha
  Plant response rating, Crabgrass, Large: 95
[6]; [18]
  Plant response rating (scale of 0 to 100), Foxtail, Giant: 90
[6]; 62 g ai/ha
  Plant response rating, Foxtail, Giant: 90
[6]; 125 g ai/ha
  Plant response rating, Foxtail, Giant: 90
[6]; 250 g ai/ha
  Plant response rating, Foxtail, Giant: 95
[7]; [18]
  Plant response rating (scale of 0 to 100), Johnsongrass: 60
[7]; 62 g ai/ha
  Plant response rating, Johnsongrass: 85
[7]; 125 g ai/ha
  Plant response rating, Johnsongrass: 75
[7]; 250 g ai/ha
  Plant response rating, Johnsongrass: 90
[8]; [18]
  Plant response rating (scale of 0 to 100), Lambsquarters: 25
[8]; 62 g ai/ha
  Plant response rating, Lambsquarters: 35
[8]; 125 g ai/ha
  Plant response rating, Lambsquarters: 70
[8]; 250 g ai/ha
  Plant response rating, Lambsquarters: 60
[9]; [18]
  Plant response rating (scale of 0 to 100), Morningglory: 0
[9]; 62 g ai/ha
  Plant response rating, Morningglory: 0
[9]; 125 g ai/ha
  Plant response rating, Morningglory: 10
[9]; 250 g ai/ha
  Plant response rating, Morningglory: 10
[10]; [18]
  Plant response rating (scale of 0 to 100), Oilseed Rape: 60
[10]; 62 g ai/ha
  Plant response rating, Oilseed Rape: 60
[10]; 125 g ai/ha
  Plant response rating, Oilseed Rape: 70
[10]; 250 g ai/ha
  Plant response rating, Oilseed Rape: 85
[11]; [18]
  Plant response rating (scale of 0 to 100), Pigweed: 75
[11]; 62 g ai/ha
  Plant response rating, Pigweed: 80
[11]; 125 g ai/ha
  Plant response rating, Pigweed: 80
[11]; 250 g ai/ha
  Plant response rating, Pigweed: 80
[12]; [18]
  Plant response rating (scale of 0 to 100), Ragweed: 25
[12]; 62 g ai/ha
  Plant response rating, Ragweed: 25
[12]; 125 g ai/ha
  Plant response rating, Ragweed: 50
[12]; 250 g ai/ha
  Plant response rating, Ragweed: 75
[13]; [18]
  Plant response rating (scale of 0 to 100), Ryegrass, Italian: 30
[13]; 62 g ai/ha
  Plant response rating, Ryegrass, Italian: 35
[13]; 125 g ai/ha
  Plant response rating, Ryegrass, Italian: 90
[13]; 250 g ai/ha
  Plant response rating, Ryegrass, Italian: 85
[14]; [18]
  Plant response rating (scale of 0 to 100), Soybean: 0
[14]; 62 g ai/ha
  Plant response rating, Soybean: 0
[14]; 125 g ai/ha
  Plant response rating, Soybean: 0
[14]; 250 g ai/ha
  Plant response rating, Soybean: 15
[15]; [18]
  Plant response rating (scale of 0 to 100), Velvetleaf: 0
[15]; 62 g ai/ha
  Plant response rating, Velvetleaf: 10
[15]; 125 g ai/ha
  Plant response rating, Velvetleaf: 40
[15]; 250 g ai/ha
  Plant response rating, Velvetleaf: 35
[16]; [18]
  Plant response rating (scale of 0 to 100), Waterhemp: 50
[16]; 62 g ai/ha
  Plant response rating, Waterhemp: 80
[16]; 125 g ai/ha
  Plant response rating, Waterhemp: 85
[16]; 250 g ai/ha
  Plant response rating, Waterhemp: 85
[17]; [18]
  Plant response rating (scale of 0 to 100), Wheat: 0
[17]; 62 g ai/ha
  Plant response rating, Wheat: 10
[17]; 125 g ai/ha
  Plant response rating, Wheat: 50
[17]; 250 g ai/ha
  Plant response rating, Wheat: 85
